Numbered stars: 1 amine (or outer) side, 2 acyl side, 3 side chain; on linkers, the order of the positions; unused ones are H or OH. Side chains are listed from the residue outwards. Peptide text beside a SMILES is read from it. * marks the point of attachment. γGlu = O=C(O)[C@H](CCC(=O)[*:2])N[*:1]; Palmitoyl = CCCCCCCCCCCCCCCC(=O)*
Experiments:
[1] = Stability testing of peptides in rat plasma; format: in vitro ADME
Procedure: Stability testing of peptides in plasma. The stability in plasma of the peptides […], […], […] and […] was determined as follows. […] The frozen blank plasma from human, rat and mouse had been thawed and heated to a temperature of 37° C. before addition of the stock solution. The spiked plasma samples were gently mixed and allowed to equilibrate for about 5 minutes before start of experiment. The plasma samples were incubated for 48 hours in a Galaxy® CO2 incubator at 37° C. […] The samples were stored at -70° C. until analysis. Plasma samples were assayed as follows. The 30 μL plasma samples were protein precipitated with […] of cold ethanol in a 96-well low bind plate (Eppendorf Protein LoBind). After mixing and centrifugation 100 μl the supernatant was transferred to a new plate and 1 μl was injected onto an analytical column. The analysis was performed using a μLC-system ([…]) coupled to a medium high resolution mass spectrometer (Perkin Elmer PenTOF) with positive electrospray ionisation. […] Flow: 0.1 ml/min using a slow reversed phase gradient. […] Products with +1 mass may arise from deamidation at amide groups of glutamine or at the C-terminus. Cleavage products arise from the action of the protease DPP IV in plasma. […] Peaks were integrated and % remaining peptide was calculated: […] […]

human serum albumin = human serum albumin (Homo sapiens, UniProt P02768); experiment: Fraction of free peptide at plasma concentration of albumin, calculated from variation in cAMP generation with HSA concentration; format: in vitro ADME; parameters: purchased Sigma Aldrich; details: calculated from variation in cAMP generation with HSA concentration
Sequence of human serum albumin (P02768 25-609): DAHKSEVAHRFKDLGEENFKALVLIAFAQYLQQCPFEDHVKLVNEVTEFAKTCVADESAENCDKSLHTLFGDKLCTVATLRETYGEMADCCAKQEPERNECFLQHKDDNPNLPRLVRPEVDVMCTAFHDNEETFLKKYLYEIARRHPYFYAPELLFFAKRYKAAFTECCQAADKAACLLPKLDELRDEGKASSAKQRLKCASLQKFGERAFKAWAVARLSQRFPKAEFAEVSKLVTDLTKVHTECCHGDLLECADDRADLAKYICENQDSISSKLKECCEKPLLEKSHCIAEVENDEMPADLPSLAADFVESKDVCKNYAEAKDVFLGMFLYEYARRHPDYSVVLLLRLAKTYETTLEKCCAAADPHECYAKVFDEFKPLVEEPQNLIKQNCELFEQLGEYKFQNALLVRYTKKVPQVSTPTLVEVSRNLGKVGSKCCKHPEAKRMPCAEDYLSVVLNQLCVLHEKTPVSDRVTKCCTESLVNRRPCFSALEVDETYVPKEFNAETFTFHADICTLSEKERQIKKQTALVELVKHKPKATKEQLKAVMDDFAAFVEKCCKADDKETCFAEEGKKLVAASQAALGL

Rat GlucR = Rat GlucR (Rattus norvegicus, UniProt P30082); experiment: cAMP assay 2 in […] rat serum albumin, rat GlucR; details: assay 2, […] Rat Serum Albumin; relative potencies vs natural ligands
Sequence of Rat GlucR (P30082 27-485): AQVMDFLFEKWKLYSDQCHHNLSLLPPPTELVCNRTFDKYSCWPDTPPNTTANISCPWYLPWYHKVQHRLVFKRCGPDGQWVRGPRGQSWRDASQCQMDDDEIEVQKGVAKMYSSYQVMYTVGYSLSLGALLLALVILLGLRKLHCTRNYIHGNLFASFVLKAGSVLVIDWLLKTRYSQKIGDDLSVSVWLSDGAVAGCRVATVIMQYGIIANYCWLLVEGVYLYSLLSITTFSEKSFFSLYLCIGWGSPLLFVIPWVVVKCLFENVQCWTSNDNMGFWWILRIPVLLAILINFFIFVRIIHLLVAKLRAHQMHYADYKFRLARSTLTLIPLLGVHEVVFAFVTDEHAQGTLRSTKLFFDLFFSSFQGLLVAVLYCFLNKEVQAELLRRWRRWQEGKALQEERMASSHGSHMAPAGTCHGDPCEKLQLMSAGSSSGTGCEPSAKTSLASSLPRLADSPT

[2] = Peptide solubility in buffers (A280); details: target 1 mg/ml
physchem = details: pH 7.2
Procedure: Peptide solubility was assessed in three different isotonic formulations: • 1. […] Final formulation pH=7.2 • 2. Back up formulation 1 (BF1)=0.05M Tris, 50 mM Arginine/Proline. Final formulation pH=8.0 • 3. […] Final formulation pH=7.0

[3] = Stability testing of peptides in mouse plasma; format: in vitro ADME
Procedure: (§1) Stability testing of peptides in plasma. The stability in plasma of the peptides […], […], […] and […] was determined as follows. […] The frozen blank plasma from human, rat and mouse had been thawed and heated to a temperature of 37° C. before addition of the stock solution. The spiked plasma samples were gently mixed and allowed to equilibrate for about 5 minutes before start of experiment. The plasma samples were incubated for 48 hours in a Galaxy® CO2 incubator at 37° C. […] The samples were stored at -70° C. until analysis. Plasma samples were assayed as follows. The 30 μL plasma samples were protein precipitated with […] of cold ethanol in a 96-well low bind plate (Eppendorf Protein LoBind). After mixing and centrifugation 100 μl the supernatant was transferred to a new plate and 1 μl was injected onto an analytical column. The analysis was performed using a μLC-system ([…]) coupled to a medium high resolution mass spectrometer (Perkin Elmer PenTOF) with positive electrospray ionisation. […] Flow: 0.1 ml/min using a slow reversed phase gradient. […] Products with +1 mass may arise from deamidation at amide groups of glutamine or at the C-terminus. Cleavage products arise from the action of the protease DPP IV in plasma. Both the degradation of the peptides and formation of peptide products were reported in percentage of the initial peptide concentration. Peaks were integrated and % remaining peptide was calculated: […] Levels of deamidation and DPP IV cleavage were low for […] and […].

Human GlucR = Human GlucR (Homo sapiens, UniProt P47871); experiment: cAMP assay 2 in 4.4% human serum albumin, human GlucR; details: assay 2, 4.4% Human Serum Albumin; relative potency GlucR (vs glucagon)/relative potency GLP1R (vs GLP1)
Sequence of Human GlucR (P47871 26-477): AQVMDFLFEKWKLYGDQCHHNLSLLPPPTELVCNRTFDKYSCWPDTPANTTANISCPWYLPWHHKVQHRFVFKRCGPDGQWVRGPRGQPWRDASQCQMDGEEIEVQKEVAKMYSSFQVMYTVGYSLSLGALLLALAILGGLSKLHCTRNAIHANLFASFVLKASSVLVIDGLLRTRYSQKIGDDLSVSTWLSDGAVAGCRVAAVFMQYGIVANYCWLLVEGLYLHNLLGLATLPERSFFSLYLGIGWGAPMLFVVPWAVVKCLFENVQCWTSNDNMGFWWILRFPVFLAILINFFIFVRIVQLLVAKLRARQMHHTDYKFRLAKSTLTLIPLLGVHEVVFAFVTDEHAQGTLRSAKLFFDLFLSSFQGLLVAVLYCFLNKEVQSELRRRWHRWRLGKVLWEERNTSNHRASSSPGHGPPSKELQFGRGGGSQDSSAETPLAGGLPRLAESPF

DIO mice = experiment: Diet induced obesity (DIO) mouse model, study A; format: in vivo; details: for HOMA / Hepatic TG / Plasma NEFA / Plasma TG: day 14; for FGF21 / BeHy: day 14 (dose from row order); for Glucose / Insulin: day 14, 4-hour fasting; for BeHy: beta-hydroxybutyrate
Excerpt: Female C57/B16JHsdOla (obtained from Harlan Laboratories, UK) were started on a high fat diet of D12492 (Research Diets, NJ, USA) and a chocolate confection, delicato ball (Delicata Bakverk, Sweden) at 9-11 weeks of age, and were maintained on the diet for 16 weeks prior to arrival to the animal facility, during a three week acclimatizion period and during drug treatment, caloric content of the two components of the diet is shown in Table 11. The mice were divided into 9 groups (n=5-6), and treatment was started at 29 weeks of age.
The body weight of the animals was monitored daily throughout the dosing period. At day 14, blood samples for the measurement of plasma glucose and insulin from conscious mice were obtained after a 4-hour fasting period. Mice were then anaesthetized using isofluorane and terminal blood was collected from the capillary bed behind the eye. The following parameters were measured: blood chemistry measurements of triglycerides, total cholesterol, non-esterified fatty acids (NEFA), beta-hydroxybutyrate and fibroblast growth factor 21 (FGF21) (Tables 14 and 15 below).

[4] = Stability testing of peptides in human plasma; format: in vitro ADME
Procedure: as §1

Mouse GlucR = Mouse GlucR (Mus musculus, UniProt Q61606); experiment: cAMP assay 2 in […] mouse serum albumin, mouse GlucR; details: assay 2, […] Mouse Serum Albumin; relative potencies vs natural ligands
Sequence of Mouse GlucR (Q61606 27-485): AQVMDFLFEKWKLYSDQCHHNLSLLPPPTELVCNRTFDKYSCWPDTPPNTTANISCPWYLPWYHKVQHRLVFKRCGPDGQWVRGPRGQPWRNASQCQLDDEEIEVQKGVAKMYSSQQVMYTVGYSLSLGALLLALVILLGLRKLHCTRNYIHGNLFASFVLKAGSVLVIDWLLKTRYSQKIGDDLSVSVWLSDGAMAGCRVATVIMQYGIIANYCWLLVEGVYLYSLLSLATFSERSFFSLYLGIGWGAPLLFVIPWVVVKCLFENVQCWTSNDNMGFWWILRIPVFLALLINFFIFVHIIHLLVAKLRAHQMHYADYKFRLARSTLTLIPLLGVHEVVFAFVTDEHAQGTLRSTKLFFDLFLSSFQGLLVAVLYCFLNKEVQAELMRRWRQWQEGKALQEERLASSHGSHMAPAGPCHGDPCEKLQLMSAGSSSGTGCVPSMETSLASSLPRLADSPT

## CCCCCCCCCCCCCCCC(=O)N[C@@H](CCC(=O)NCCCC[C@H](NC(=O)[C@H](CCCCN)NC(=O)[C@H](CO)NC(=O)[C@H](Cc1ccc(O)cc1)NC(=O)[C@H](CC(=O)O)NC(=O)[C@H](CO)NC(=O)[C@@H](NC(=O)[C@H](Cc1ccccc1)NC(=O)[C@@H](NC(=O)CNC(=O)[C@H](CCC(N)=O)NC(=O)[C@H](CO)NC(=O)[C@@H](N)Cc1c[nH]cn1)[C@@H](C)O)[C@@H](C)O)C(=O)N[C@@H](CC(C)C)C(=O)N[C@@H](CC(=O)O)C(=O)N[C@@H](CO)C(=O)N[C@@H](CCC(=O)O)C(=O)N[C@@H](CCCNC(=N)N)C(=O)N[C@@H](C)C(=O)N[C@@H](CCCNC(=N)N)C(=O)N[C@@H](CC(=O)O)C(=O)N[C@@H](Cc1ccccc1)C(=O)N[C@H](C(=O)N[C@@H](C)C(=O)N[C@@H](Cc1c[nH]c2ccccc12)C(=O)N[C@@H](CC(C)C)C(=O)N[C@H](C(=O)N[C@@H](C)C(=O)NCC(=O)NCC(N)=O)C(C)C)C(C)C)C(=O)O [Peptide G730] (H-HSQGTFTSDYSKK([γGlu-Palmitoyl])LDSERARDFVAWLVAGG-NH2; N-terminus assumed)
[1]
  % +1 prod: 58%
  % DPP cleaved product/+1 DPP cleaved product: 2%
Human serum albumin
  free peptide at 4.4% HSA: 0.85%
Rat GlucR
  Rat GlucR/GLP1R Ratio: 0.06
[2]; Glutamate pH 4.5, 100 mM
  Conc. (mg/ml) A280: 0.83 mg/mL
[2]; Phosphate pH 6.5, 100 mM
  Conc. (mg/ml) A280: 0.83 mg/mL
[2]; Phosphate pH 7.5, 100 mM
  Conc. (mg/ml) A280: 0.85 mg/mL
[2]; Phosphate, pH = 6, 100 mM
  Conc. (mg/ml) A280: 0.14 mg/mL
[2]; Tris pH 7.5, 100 mM
  Conc. (mg/ml) A280: 0.83 mg/mL
[2]; Tris pH 8.0, 100 mM
  Conc. (mg/ml) A280: 1.1 mg/mL
physchem
  solubility: ≥ 5000 µg/mL
[3]
  % +1 prod: 15%
[3]; Mouse Plasma at 24 h, 37° C., column % DPP cleaved product/+1 DPP cleaved product, first figure
  % DPP cleaved product: 14%
[3]; Mouse Plasma at 24 h, 37° C., column % DPP cleaved product/+1 DPP cleaved product, second figure
  % +1 DPP cleaved product: 5%
Human GlucR
  Human GlucR/GLP1R Ratio: 0.122
DIO mice; 10 nmol/kg s.c. twice daily for 14 days
  BW day 14 (% change of vehicle mean): −7.5%
DIO mice; 10 nmol/kg s.c. twice daily
  HOMA: 3.3
  Hepatic TG: 9.0 g TG/100g Tissue
  Plasma NEFA: 0.28 mM
  Plasma TG: 0.21 mM
  FGF21: 1963 pg/mL
  Glucose: 7.2 mM
  Insulin: 0.4 nM
  BeHy: 428 µmol/L
DIO mice; 20 nmol/kg s.c. twice daily for 14 days
  BW day 14 (% change of vehicle mean): −15.6%
DIO mice; 20 nmol/kg s.c. twice daily
  HOMA: 1.7
  Hepatic TG: 17.7 g TG/100g Tissue
  Plasma NEFA: 0.26 mM
  Plasma TG: 0.2 mM
  FGF21: 2236 pg/mL
  Glucose: 6.7 mM
  Insulin: 0.2 nM
  BeHy: 750 µmol/L
DIO mice; 20 nmol/kg, result in words
  insulin sensitivity index HOMA: significantly improved
DIO mice; 50 nmol/kg
  change in weight at day 14 as compared to the vehicle-treated animals: about 24%
DIO mice; 50 nmol/kg s.c. twice daily for 14 days
  BW day 14 (% change of vehicle mean): −24.0%
DIO mice; 50 nmol/kg s.c. twice daily
  HOMA: 2.1
  Hepatic TG: 28.1 g TG/100g Tissue
  Plasma NEFA: 0.32 mM
  Plasma TG: 0.23 mM
  FGF21: 5294 pg/mL
  Glucose: 5.9 mM
  Insulin: 0.3 nM
  BeHy: 1477 µmol/L
DIO mice; at all doses, result in words
  Total plasma cholesterol: lowered
DIO mice; study A, FIGS. 1-4
  effect on body weight over the 14 day dosing period: dose dependent and continuous weight loss
DIO mice; study A, result in words
  glucose levels at day 14: dose-dependent reduction
[4]
  % +1 prod: <1%
  % DPP cleaved product/+1 DPP cleaved product: <1%
Mouse GlucR
  Mouse GlucR/GLP1R Ratio: 0.04
